One molecule from ChEMBL document CHEMBL1138720, “Synthesis, (1-->3)-beta-D-glucanase-binding ability and phytoalexin-elicitor activity of (R)-2,3-epoxypropyl (1-->3)-beta-D-pentaglucoside” (Bioorg Med Chem Lett, 2004) can be followed below.

A short description of test [1]: Phytoalexin-elicitor activity in tobacco cotyledon tissue was determined after 66 hrs. In kind it is functional, Nicotiana tabacum.
Test [2] in a line: Phytoalexin-elicitor activity in tobacco cotyledon tissue was determined after 44 hrs. It is filed as functional, Nicotiana tabacum.
Test [3] is described as follows: Inactivation of (1-3)-beta-D-glucanase by the compound was determined.
A short description of test [4]: Phytoalexin-elicitor activity in tobacco cotyledon tissue was determined after 22 hrs. In kind it is functional, Nicotiana tabacum.

Regarding `OC[C@H]1O[C@@H](O[C@@H]2[C@@H](O)[C@H](O[C@@H]3[C@@H](O)[C@H](O[C@@H]4[C@@H](O)[C@H](O[C@@H]5[C@@H](O)[C@H](OC[C@H]6CO6)O[C@H](CO)[C@H]5O)O[C@H](CO)[C@H]4O)O[C@H](CO)[C@H]3O)O[C@H](CO)[C@H]2O)[C@H](O)[C@@H](O)[C@@H]1O`, the EC50 in test [1] was determined as 160 uM l-1; in test [2], 80 uM l-1; in test [4], 90 uM l-1. The K app in test [3] amounted to 0.000379 min⁻¹.
